Laboratory results reported in patent US12435044B2, “Pyridazinone herbicides and pyridazinone intermediates used to prepare a herbicide” (FMC Corporation, priority 2018, dated 2025).

Tests used:
Format in all cases: in vivo
[1] = test system: barnyardgrass (Echinochloa crus-galli); assay: Test A pre-/postemergence greenhouse test
From the text: (§1) Seeds of plant species selected from barnyardgrass (Echinochloa crus-galli), kochia (Kochia scoparia), ragweed (common ragweed, Ambrosia elatior), ryegrass, Italian (Lolium multiflorum), foxtail, giant (Setaria faberii), foxtail, green (Setaria viridis) and pigweed (Amaranthus retroflexus) were planted into a blend of loam soil and sand and treated preemergence with a directed soil spray using test chemicals formulated in a non-phytotoxic solvent mixture which included a surfactant.
(§2) At the same time, plants selected from these weed species and also wheat (Triticum aestivum), corn (Zea mays), blackgrass (Alopecurus myosuroides) and galium (catchweed bedstraw, Galium aparine) were planted in pots containing the same blend of loam soil and sand and treated with postemergence applications of test chemicals formulated in the same manner. Plants ranged in height from 2 to 10 cm and were in the one- to two-leaf stage for the postemergence treatment. Treated plants and untreated controls were maintained in a greenhouse for approximately 10 d, after which time all treated plants were compared to untreated controls and visually evaluated for injury. Plant response ratings, summarized in Table A, are based on a 0 to 100 scale where 0 is no effect and 100 is complete control. A dash (-) response means no test result.

[2] = test system: kochia (Kochia scoparia); assay: Test A pre-/postemergence greenhouse test
From the text: as §1, §2

[3] = test system: pigweed (Amaranthus retroflexus); assay: Test A pre-/postemergence greenhouse test
From the text: as §1, §2

[4] = test system: ragweed (common ragweed, Ambrosia elatior); assay: Test A pre-/postemergence greenhouse test
From the text: as §1, §2

[5] = test system: ryegrass, Italian (Lolium multiflorum); assay: Test A pre-/postemergence greenhouse test
From the text: as §1, §2

[6] = test system: barnyardgrass (Echinochloa crus-galli); assay: Test B flooded paddy test; settings: Flood, 250 g ai/ha
[7] = test system: duck salad (Heteranthera limosa); assay: Test B flooded paddy test; settings: Flood, 250 g ai/ha, Ducksalad
[8] = test system: rice (Oryza sativa); assay: Test B flooded paddy test; settings: Flood, 250 g ai/ha
[9] = test system: barnyardgrass (Echinochloa crus-galli); assay: Test C pre-/postemergence greenhouse test; settings: scale 0 to 100
From the text: (§3) Seeds of plant species selected from blackgrass (Alopecurus myosuroides), ryegrass, Italian (Lolium multiflorum), wheat, winter (winter wheat, Triticum aestivum), galium (catchweed bedstraw, Galium aparine), corn (Zea mays), crabgrass, large (Digitaria sanguinalis), foxtail, giant (Setaria faberii), johnsongrass (Sorghum halepense), lambsquarters (Chenopodium album), morningglory (Ipomoea coccinea), nutsedge, yellow (Cyperus esculentus), pigweed (Amaranthus retroflexus), ragweed (common ragweed, Ambrosia elatior), soybean (Glycine max), barnyardgrass (Echinochloa crus-galli), oilseed rape (Brassica napus), waterhemp (common waterhemp, Amaranthus rudis), pigweed, palmer (Amaranthus palmeri), kochia (Kochia scoparia), oat, wild (Avena fatua), surinam grass (Brachiaria decumbens), windgrass (Apera spica-venti), poinsettia, wild (Euphorbia heterophylla) and velvetleaf (Abutilon theophrasti) were planted into a silt loam soil and treated preemergence with test chemicals formulated in a non-phytotoxic solvent mixture which included a surfactant.
(§4) At the same time, plants selected from these crop and weed species and also chickweed (common chickweed, Stellaria media), buckwheat, wild (Polygonum convolvulus), mustard, wild (Sinapis arvensis), field poppy (Papaver rhoeas), field violet (Viola arvensis), nightshade (eastern black nightshade, Solanum ptycanthum), speedwell (bird's-eye speedwell, Veronica persica), horseweed (Conyza canadensis), cutleaf geranium (Geranium dissectum), and Canada thistle (Cirsium arvense) were planted in pots containing Redi-Earth® planting medium (Scotts Company, 14111 Scottslawn Road, Marysville, Ohio 43041) comprising spaghnum peat moss, vermiculite, wetting agent and starter nutrients and treated with postemergence applications of test chemicals formulated in the same manner. Plants ranged in height from 2 to 18 cm (1- to 4-leaf stage) for postemergence treatments. Treated plants and controls were maintained in a greenhouse for 13 to 21 d, after which time all species were compared to controls and visually evaluated. Plant response ratings, summarized in Table C-1 (postemergence) and C-2 (preemergence), are based on a scale of 0 to 100 where 0 is no effect and 100 is complete control. A dash (-) response means no test result.

[10] = test system: foxtail, giant (Setaria faberii); assay: Test C pre-/postemergence greenhouse test; settings: scale 0 to 100
From the text: as §3, §4

[11] = test system: wheat, winter (winter wheat, Triticum aestivum); assay: Test C pre-/postemergence greenhouse test; settings: scale 0 to 100
From the text: as §3, §4

[12] = test system: chickweed (common chickweed, Stellaria media); assay: Test C postemergence greenhouse test; settings: scale 0 to 100
From the text: as §3, §4

[13] = test system: field poppy (Papaver rhoeas); assay: Test C postemergence greenhouse test; settings: scale 0 to 100
From the text: as §3, §4

Cc1ccc2ccc(Cl)cc2c1-c1c(O)c(Cl)nn(C)c1=O [Cpd. No. 22]
Plant response rating (0 to 100 scale) ([1]; Postemergence, 31 g ai/ha): 100 | Plant response rating (0 to 100 scale) ([1]; Postemergence, 125 g ai/ha): 100 | Plant response rating (0 to 100 scale) ([1]; Preemergence, 31 g ai/ha): 100 | Plant response rating (0 to 100 scale) ([1]; Preemergence, 125 g ai/ha): 100 | Plant response rating (0 to 100 scale) ([2]; Postemergence, 31 g ai/ha): 60 | Plant response rating (0 to 100 scale) ([2]; Postemergence, 125 g ai/ha): 100 | Plant response rating (0 to 100 scale) ([2]; Preemergence, 31 g ai/ha): 10 | Plant response rating (0 to 100 scale) ([2]; Preemergence, 125 g ai/ha): 90 | Plant response rating (0 to 100 scale) ([3]; Postemergence, 31 g ai/ha): 100 | Plant response rating (0 to 100 scale) ([3]; Postemergence, 125 g ai/ha): 100 | Plant response rating (0 to 100 scale) ([3]; Preemergence, 31 g ai/ha): 100 | Plant response rating (0 to 100 scale) ([3]; Preemergence, 125 g ai/ha): 100 | Plant response rating (0 to 100 scale) ([4]; Postemergence, 31 g ai/ha): 100 | Plant response rating (0 to 100 scale) ([4]; Postemergence, 125 g ai/ha): 100 | Plant response rating (0 to 100 scale) ([4]; Preemergence, 31 g ai/ha): 100 | Plant response rating (0 to 100 scale) ([4]; Preemergence, 125 g ai/ha): 100 | Plant response rating (0 to 100 scale) ([5]; Postemergence, 31 g ai/ha): 100 | Plant response rating (0 to 100 scale) ([5]; Postemergence, 125 g ai/ha): 100 | Plant response rating (0 to 100 scale) ([5]; Preemergence, 31 g ai/ha): 90 | Plant response rating (0 to 100 scale) ([5]; Preemergence, 125 g ai/ha): 100 | Plant response rating (0 to 100 scale) [6]: 40 | Plant response rating (0 to 100 scale) [7]: 90 | Plant response rating (0 to 100 scale) [8]: 60 | Plant response rating, Barnyardgrass ([9]; Postemergence, 16 g ai/ha): 85 | Plant response rating, Barnyardgrass ([9]; Postemergence, 31 g ai/ha): 90 | Plant response rating, Barnyardgrass ([9]; Postemergence, 62 g ai/ha): 95 | Plant response rating, Barnyardgrass ([9]; Postemergence, 125 g ai/ha): 95 | Plant response rating, Barnyardgrass ([9]; Preemergence, 31 g ai/ha): 65 | Plant response rating, Barnyardgrass ([9]; Preemergence, 61 g ai/ha): 5 | Plant response rating, Barnyardgrass ([9]; Preemergence, 62 g ai/ha): 85 | Plant response rating, Barnyardgrass ([9]; Preemergence, 125 g ai/ha): 100 | Plant response rating, Foxtail, Giant ([10]; Postemergence, 16 g ai/ha): 85 | Plant response rating, Foxtail, Giant ([10]; Postemergence, 31 g ai/ha): 90 | Plant response rating, Foxtail, Giant ([10]; Postemergence, 62 g ai/ha): 95 | Plant response rating, Foxtail, Giant ([10]; Postemergence, 125 g ai/ha): 98 | Plant response rating, Foxtail, Giant ([10]; Preemergence, 31 g ai/ha): 80 | Plant response rating, Foxtail, Giant ([10]; Preemergence, 61 g ai/ha): 0 | Plant response rating, Foxtail, Giant ([10]; Preemergence, 62 g ai/ha): 100 | Plant response rating, Foxtail, Giant ([10]; Preemergence, 125 g ai/ha): 100 | Plant response rating, Wheat ([11]; Postemergence, 16 g ai/ha): 85 | Plant response rating, Wheat ([11]; Postemergence, 31 g ai/ha): 90 | Plant response rating, Wheat ([11]; Postemergence, 62 g ai/ha): 90 | Plant response rating, Wheat ([11]; Postemergence, 125 g ai/ha): 95 | Plant response rating, Wheat ([11]; Preemergence, 31 g ai/ha): 85 | Plant response rating, Wheat ([11]; Preemergence, 61 g ai/ha): 60 | Plant response rating, Wheat ([11]; Preemergence, 62 g ai/ha): 95 | Plant response rating, Wheat ([11]; Preemergence, 125 g ai/ha): 100 | Plant response rating, Chickweed ([12]; 16 g ai/ha): 100 | Plant response rating, Chickweed ([12]; 31 g ai/ha): 98 | Plant response rating, Chickweed ([12]; 62 g ai/ha): 100 | Plant response rating, Chickweed ([12]; 125 g ai/ha): 100 | Plant response rating, Field Poppy ([13]; 16 g ai/ha): 75 | Plant response rating, Field Poppy ([13]; 31 g ai/ha): 75 | Plant response rating, Field Poppy ([13]; 62 g ai/ha): 75 | Plant response rating, Field Poppy ([13]; 125 g ai/ha): 100

Cc1cc(Cl)c2ccccc2c1-c1c(O)c(Cl)nn(C)c1=O [Cpd. No. 65]
Plant response rating (0 to 100 scale) ([1]; Postemergence, 31 g ai/ha): 100 | Plant response rating (0 to 100 scale) ([1]; Postemergence, 125 g ai/ha): 100 | Plant response rating (0 to 100 scale) ([1]; Preemergence, 31 g ai/ha): 100 | Plant response rating (0 to 100 scale) ([1]; Preemergence, 125 g ai/ha): 100 | Plant response rating (0 to 100 scale) ([2]; Postemergence, 31 g ai/ha): 80 | Plant response rating (0 to 100 scale) ([2]; Postemergence, 125 g ai/ha): 100 | Plant response rating (0 to 100 scale) ([2]; Preemergence, 31 g ai/ha): 0 | Plant response rating (0 to 100 scale) ([2]; Preemergence, 125 g ai/ha): 80 | Plant response rating (0 to 100 scale) ([3]; Postemergence, 31 g ai/ha): 100 | Plant response rating (0 to 100 scale) ([3]; Postemergence, 125 g ai/ha): 100 | Plant response rating (0 to 100 scale) ([3]; Preemergence, 31 g ai/ha): 100 | Plant response rating (0 to 100 scale) ([3]; Preemergence, 125 g ai/ha): 100 | Plant response rating (0 to 100 scale) ([4]; Postemergence, 31 g ai/ha): 100 | Plant response rating (0 to 100 scale) ([4]; Postemergence, 125 g ai/ha): 100 | Plant response rating (0 to 100 scale) ([4]; Preemergence, 31 g ai/ha): 100 | Plant response rating (0 to 100 scale) ([4]; Preemergence, 125 g ai/ha): 100 | Plant response rating (0 to 100 scale) ([5]; Postemergence, 31 g ai/ha): 100 | Plant response rating (0 to 100 scale) ([5]; Postemergence, 125 g ai/ha): 100 | Plant response rating (0 to 100 scale) ([5]; Preemergence, 31 g ai/ha): 100 | Plant response rating (0 to 100 scale) ([5]; Preemergence, 125 g ai/ha): 100 | Plant response rating (0 to 100 scale) [6]: 40 | Plant response rating (0 to 100 scale) [7]: 80 | Plant response rating (0 to 100 scale) [8]: 20 | Plant response rating, Barnyardgrass ([9]; Postemergence, 16 g ai/ha): 80 | Plant response rating, Barnyardgrass ([9]; Postemergence, 31 g ai/ha): 85 | Plant response rating, Barnyardgrass ([9]; Postemergence, 62 g ai/ha): 100 | Plant response rating, Barnyardgrass ([9]; Postemergence, 125 g ai/ha): 100 | Plant response rating, Barnyardgrass ([9]; Preemergence, 31 g ai/ha): 20 | Plant response rating, Barnyardgrass ([9]; Preemergence, 61 g ai/ha): 10 | Plant response rating, Barnyardgrass ([9]; Preemergence, 62 g ai/ha): 60 | Plant response rating, Barnyardgrass ([9]; Preemergence, 125 g ai/ha): 75 | Plant response rating, Foxtail, Giant ([10]; Postemergence, 16 g ai/ha): 95 | Plant response rating, Foxtail, Giant ([10]; Postemergence, 31 g ai/ha): 95 | Plant response rating, Foxtail, Giant ([10]; Postemergence, 62 g ai/ha): 98 | Plant response rating, Foxtail, Giant ([10]; Postemergence, 125 g ai/ha): 98 | Plant response rating, Foxtail, Giant ([10]; Preemergence, 31 g ai/ha): 75 | Plant response rating, Foxtail, Giant ([10]; Preemergence, 61 g ai/ha): 35 | Plant response rating, Foxtail, Giant ([10]; Preemergence, 62 g ai/ha): 95 | Plant response rating, Foxtail, Giant ([10]; Preemergence, 125 g ai/ha): 100 | Plant response rating, Wheat ([11]; Postemergence, 16 g ai/ha): 90 | Plant response rating, Wheat ([11]; Postemergence, 31 g ai/ha): 95 | Plant response rating, Wheat ([11]; Postemergence, 62 g ai/ha): 95 | Plant response rating, Wheat ([11]; Postemergence, 125 g ai/ha): 95 | Plant response rating, Wheat ([11]; Preemergence, 31 g ai/ha): 60 | Plant response rating, Wheat ([11]; Preemergence, 61 g ai/ha): 30 | Plant response rating, Wheat ([11]; Preemergence, 62 g ai/ha): 80 | Plant response rating, Wheat ([11]; Preemergence, 125 g ai/ha): 90 | Plant response rating, Chickweed ([12]; 16 g ai/ha): 98 | Plant response rating, Chickweed ([12]; 31 g ai/ha): 95 | Plant response rating, Chickweed ([12]; 62 g ai/ha): 95 | Plant response rating, Chickweed ([12]; 125 g ai/ha): 98 | Plant response rating, Field Poppy ([13]; 16 g ai/ha): 80 | Plant response rating, Field Poppy ([13]; 31 g ai/ha): 98 | Plant response rating, Field Poppy ([13]; 62 g ai/ha): 98 | Plant response rating, Field Poppy ([13]; 125 g ai/ha): 100
